Data on 20 compounds can be found in patent publication US20260234137A1, “BICYCLIC ENHANCERS OF THE PARTICULATE GUANYLYL CYCLASE RECEPTOR A” (University of Florida Research Foundation, Incorporated, priority 2022, published 2026).

pEC50, pIC50: −log10 of the molar value. Entries after “also recorded” stand apart in the source; their conditions may differ. Where two headings read alike, the source gives them in different places.

The target of one data set is T1, human GC-A (Homo sapiens, UniProt P16066).
T1 construct: host or cells: HEK293
T1 sequence (P16066 33-1061): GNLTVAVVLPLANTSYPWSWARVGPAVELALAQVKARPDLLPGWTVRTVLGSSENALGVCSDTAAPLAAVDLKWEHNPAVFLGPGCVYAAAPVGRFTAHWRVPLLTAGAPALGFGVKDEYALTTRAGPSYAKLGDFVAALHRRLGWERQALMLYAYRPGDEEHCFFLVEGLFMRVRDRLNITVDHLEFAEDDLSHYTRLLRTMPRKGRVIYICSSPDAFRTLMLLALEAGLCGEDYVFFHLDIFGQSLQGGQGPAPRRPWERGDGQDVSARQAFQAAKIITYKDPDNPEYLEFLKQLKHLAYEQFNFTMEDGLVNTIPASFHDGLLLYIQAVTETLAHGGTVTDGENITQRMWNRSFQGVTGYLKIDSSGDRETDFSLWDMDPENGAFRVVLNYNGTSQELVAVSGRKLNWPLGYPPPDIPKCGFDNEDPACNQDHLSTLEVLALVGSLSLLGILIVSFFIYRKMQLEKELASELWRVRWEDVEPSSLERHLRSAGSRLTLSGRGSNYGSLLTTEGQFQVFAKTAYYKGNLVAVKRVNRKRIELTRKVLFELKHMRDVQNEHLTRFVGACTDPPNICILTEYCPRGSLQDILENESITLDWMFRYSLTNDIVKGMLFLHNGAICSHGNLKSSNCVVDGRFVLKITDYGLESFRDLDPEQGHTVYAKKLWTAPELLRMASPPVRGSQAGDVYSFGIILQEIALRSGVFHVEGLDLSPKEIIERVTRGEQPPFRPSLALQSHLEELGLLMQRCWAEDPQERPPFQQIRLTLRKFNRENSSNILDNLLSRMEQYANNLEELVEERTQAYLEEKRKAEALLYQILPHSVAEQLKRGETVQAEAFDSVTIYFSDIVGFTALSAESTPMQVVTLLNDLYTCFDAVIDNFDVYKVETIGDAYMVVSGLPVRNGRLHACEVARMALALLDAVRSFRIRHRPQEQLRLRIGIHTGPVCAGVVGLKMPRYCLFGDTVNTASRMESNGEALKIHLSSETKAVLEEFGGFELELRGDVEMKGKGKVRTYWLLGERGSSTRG
T1 sequence (P01160 124-151 partner limits assumed): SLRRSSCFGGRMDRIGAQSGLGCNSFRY
Briefly: cGMP potentiation (HTRF) in human GC-A overexpressing HEK293 cells with EC20 ANP. The class given is cell-based. The note with it: for pIC50: Table 3, additional compounds, modulation of pGC-A; for Emax: HEK293. As to the method:
Test compounds were evaluated for potentiation of cGMP in human GC-A overexpressing HEK293 cells (Cardiorenal Research Laboratory, Mayo Clinic). Test compounds at 10 mM DMSO stock concentration were dispensed into 384 well small volume white plates using Tecan D300e digital dispenser starting at 5 μM concentration and diluted 2-fold for 10-point concentration response. Wells were backfilled with DMSO such that the final concentration of DMSO in all wells was maintained at 0.3% DMSO. Atrial natriuretic peptide (ANP, Phoenix Pharmaceuticals) peptide ANP was prepared as working stock aliquots at 5 μM in phosphate-buffered solution (PBS) with 0.1% bovine serum albumin (BSA) and diluted to […] in buffer+Tween20 at 0.3% and added to plates to a final concentration of 20 pM (EC20). GC-A cells in suspension […] in OptiMem media (11058-021) supplemented with 2% fetal bovine serum were plated at 1×10^6 cells/mL and assay plates were spun at 1000 rpm for 30 sec and incubated at RT for 30 min. GC-A-mediated activation of cGMP production was measured using cGMP CisBio detection homogenous time-resolved florescence (HTRF) competition assay using labeled-cGMP in human GC-A-overexpressing HEK293 cells. 5 μL of d-2 acceptor was dispensed into each well followed by addition of 5 μL of Anti-cGMP Eu-Cryptate antibody donor and plates were spun at 1000 rpm for 30 sec and incubated in the dark at RT for 1 hr. HTRF florescence was read on the ClarioStar microplate reader (BMG). A 100% response was determined from wells in the absence of compound and presence of saturating concentration of ANP (10 nM), and 0% response was determined from wells containing an EC20 concentration of ANP determined for each new lot of ANP. EC20 values of ANP were maintained in the range of 15-30 pM across all assay plates tested.
Test compounds were tested in the absence of ANP to determine agonist activity.

In another data set the target is hERG channel (Homo sapiens, UniProt Q12809). Briefly: hERG binding / selectivity over hERG.
The conditions of data set [1]: cited from earlier work.
The mark [2] stands for this setting: Table 1, 100% = saturating ANP (10 nM), 0% = EC20 ANP, read-out: Emax (%).
Where [3] appears, read: Table 1, Formula (I-a), cGMP potentiation, ANP at EC20, read-out: EC50.

Chain of hERG channel (Q12809 whole entry): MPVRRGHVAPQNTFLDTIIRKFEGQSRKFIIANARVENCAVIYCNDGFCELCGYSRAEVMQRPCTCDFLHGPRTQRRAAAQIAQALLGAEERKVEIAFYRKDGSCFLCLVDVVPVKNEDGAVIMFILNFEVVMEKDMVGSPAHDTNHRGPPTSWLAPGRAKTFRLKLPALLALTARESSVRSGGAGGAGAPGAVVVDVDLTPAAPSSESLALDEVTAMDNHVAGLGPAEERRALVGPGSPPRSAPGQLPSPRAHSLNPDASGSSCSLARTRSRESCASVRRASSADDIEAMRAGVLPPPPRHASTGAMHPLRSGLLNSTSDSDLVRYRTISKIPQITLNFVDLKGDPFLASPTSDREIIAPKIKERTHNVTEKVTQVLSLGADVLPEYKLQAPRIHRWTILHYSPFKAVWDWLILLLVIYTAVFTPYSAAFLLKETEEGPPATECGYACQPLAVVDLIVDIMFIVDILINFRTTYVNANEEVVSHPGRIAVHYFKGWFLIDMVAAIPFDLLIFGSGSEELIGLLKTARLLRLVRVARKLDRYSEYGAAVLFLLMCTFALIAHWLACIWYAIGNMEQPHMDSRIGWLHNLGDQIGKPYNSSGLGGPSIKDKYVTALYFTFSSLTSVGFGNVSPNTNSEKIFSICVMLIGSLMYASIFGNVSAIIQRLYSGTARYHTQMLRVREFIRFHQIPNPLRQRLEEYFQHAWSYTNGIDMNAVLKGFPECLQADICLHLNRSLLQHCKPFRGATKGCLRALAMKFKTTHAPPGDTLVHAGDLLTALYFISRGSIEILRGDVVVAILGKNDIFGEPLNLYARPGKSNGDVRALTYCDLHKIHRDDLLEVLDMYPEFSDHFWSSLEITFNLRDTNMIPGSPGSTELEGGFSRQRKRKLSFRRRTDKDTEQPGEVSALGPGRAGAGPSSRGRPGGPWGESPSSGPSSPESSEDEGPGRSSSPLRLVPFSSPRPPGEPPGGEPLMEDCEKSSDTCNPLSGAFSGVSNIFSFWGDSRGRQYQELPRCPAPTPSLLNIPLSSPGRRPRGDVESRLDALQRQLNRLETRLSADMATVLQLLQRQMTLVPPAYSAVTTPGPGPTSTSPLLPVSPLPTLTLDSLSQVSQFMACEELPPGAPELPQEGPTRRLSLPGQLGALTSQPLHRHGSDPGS

For `CN(C)CCN1CCCC(C(=O)Nc2nc3c(F)cc(C(F)(F)F)cc3s2)C1` (centres unmarked) [JUF-S3-004], at human GC-A, the pIC50 was less than 5.30.

For the compound `Cc1cc(F)c2nc(NC(=O)C3CCCN(CCN(C)C)C3)sc2c1` (centres unmarked) [JUF-S3-005], the pIC50 at human GC-A is 6.05. Take `COc1cc(F)c2nc(NC(=O)C3CCCN(CCN(C)C)C3)sc2c1` (centres unmarked) [JUF-S3-006]: the Emax on human GC-A (Table 3, 100% = saturating ANP (10 nM), 0% = EC20 ANP, read-out: Emax (%)) was determined as 112%. For the same compound, on human GC-A, the pIC50 is 5.17. For the compound `CCOc1cc(F)c2nc(NC(=O)C3CCCN(CCN(C)C)C3)sc2c1` (centres unmarked) [JUF-S3-010], the pIC50 at human GC-A is less than 5.30.

Take `CN(C)c1ccc(N2CCCC(C(=O)Nc3nc4c(F)cc(F)cc4s3)C2)cc1` (centres unmarked) [JUF-S4-009]: the “GC-A activity (in words)” value at human GC-A was “active”. `O=C(Nc1nc2c(F)cc(F)cc2s1)C1CCCN(CCn2cccn2)C1` (centres unmarked) [JUF-S4-012]: on human GC-A, the “GC-A activity (in words)” value is recorded as “tolerated”. In addition, the LLE on human GC-A (Table 1) is reported as 2.91. On to `O=C(Nc1nc2c(F)cc(F)cc2s1)C1CCCN(CCN2CCCC2=O)C1` (centres unmarked) [JUF-S4-014], for which, at human GC-A, the “GC-A activity (in words)” value is recorded as “loss of activity”. For the same compound, the Emax on human GC-A (setting [2]) was found to be 105%.

Take `CN1CCC(N2CCCC(C(=O)Nc3nc4c(F)cc(F)cc4s3)C2)C1` (centres unmarked) [JUF-S4-015]: the Emax on human GC-A (setting [2]) was 89%. Further, the LLE on human GC-A (Table 1) is 4.09- 4.39. The pEC50 on human GC-A (setting [3]) is 6.89.

With `CN1CCCC(N2CCCC(C(=O)Nc3nc4c(F)cc(F)cc4s3)C2)C1` (centres unmarked) [JUF-S4-016], the Emax at human GC-A (setting [2]) is 97%. With `Cn1cc(N2CCCC(C(=O)Nc3nc4c(F)cc(F)cc4s3)C2)cn1` (centres unmarked) [JUF-S4-023], the Emax on human GC-A (setting [2]) was in the range of 81 to 86%. In addition, on human GC-A (setting [3]), the pEC50 is 5.31 to 5.68. In the same order, the values of `O=C(Nc1nc2c(F)cc(F)cc2s1)C1CCCN(c2cccnc2)C1` (centres unmarked) [JUF-S4-025] are 104 to 135% and 5.13 to 5.60. Take `O=C(Nc1nc2c(F)cc(F)cc2s1)C1CCCN(c2ccncc2)C1` (centres unmarked) [JUF-S4-026]: the “GC-A activity (in words)” value at human GC-A is “active; also recorded: more active than MCUF-651”. Also, the LLE on human GC-A (Table 1) is listed as 3.28- 3.72. Further, the “hERG binding (in words)” value at hERG channel was “did not result in selectivity over hERG binding”.

On to `O=C(Nc1nc2c(F)cc(F)cc2s1)C1CCCN(C2CNC2)C1` (centres unmarked) [JUF-S4-029A], for which, at human GC-A (setting [2]), the Emax fell in the range of 84 to 89%. Also, the pEC50 at human GC-A (setting [3]) is 6.70 to 7.10. For `CN1CC(N2CCCC(C(=O)Nc3nc4c(F)cc(F)cc4s3)C2)C1` (centres unmarked) [JUF-S4-029], on human GC-A, the “GC-A activity (in words)” value was “high potency in activation of GC-A”. Further, the LLE on human GC-A (Table 1) was 5.11. In addition, at human GC-A (compared to MCUF-651), the “potency in activation of GC-A relative to MCUF-651” value is reported as ~ 10 fold. At hERG channel, the “hERG binding (in words)” value is on record as “did not eliminate hERG binding”; the “toxicity from binding at hERG channel and other off-target toxicity (in words)” value is “reduced toxicity”. For the same compound, at hERG channel (human, compared to MCUF-651, read-out: selectivity for GC-A vs hERG relative to MCUF-651), the selectivity ratio is 50 to 100. In the case of `CN(C)CCN1CC(C(=O)Nc2nc3c(F)cc(F)cc3s2)CCC1=O` (centres unmarked) [JUF-S11-001], at human GC-A (Table 2, Formula (I-b), cGMP potentiation, ANP at EC20, read-out: EC50), the pEC50 was less than 5.30.

For `O=C(Nc1nc2c(F)cc(F)cc2s1)C1CNCCN1C(=O)OCc1ccccc1` (centres unmarked) [JUF-S11-002A], the pIC50 on human GC-A was less than 5.30. As for `O=C(Nc1nc2c(F)cc(F)cc2s1)C1CNCCO1` (centres unmarked) [JUF-S11-003A], the pIC50 at human GC-A was less than 5.30. For `CN(C)CCN1CCOC(C(=O)Nc2nc3c(F)cc(F)cc3s2)C1` (centres unmarked) [JUF-S11-003], on human GC-A, the pIC50 was less than 5.30. Take `CN(C)CCN1CCCC(C(=O)Nc2nc3c(F)cc(F)cc3s2)C1` (centres unmarked) [MCUF 651, reference compound]: the “Emax values of internal control” value at human GC-A (FIG. 2, titrated on each 384-test plate) is listed as 80-100 % response. Also, the negative-log EC50 (pEC50) at human GC-A (FIG. 2, titrated on each 384-test plate, read-out: Acceptable EC50 values of internal control) was 6.22 to 6.70.

As for `CN(C)CCN1CCCC(C(=O)Nc2nc3c(F)cc(F)cc3s2)C1` (centres unmarked) [MCUF-651], at human GC-A (control on each assay plate, read-out: Emax range of control compound), the Emax was 75 to 85%. Moreover, the “in vivo activity (in words)” value in data set [1] is “active in vivo”. The “oral bioavailability (in words)” value in data set [1] (in vivo, po) was “orally bioavailable”.
